Like-named read-outs stand apart in the source and are kept apart here.
What was measured:
[1] = system: melanoma B 16; assay: Test for melanoma B 16; type: in vivo, BDF1 hybrid mice; conditions: D1-D9; for Number of survivors: day D60; for T/C %: survival time
Experimental: (§1) The antitumour activity was tested in vivo on various tumours inoculated in various ways according to the following general protocol:
(§2) All the male or female mice are inoculated on day D0 with a known quantity of viable tumour cells for ascitic tumours or with a known tumour fragment for solid tumours.
(§3) They are then distributed into various groups. Each group, corresponding to the animals treated by the product under test, is made up of 10 mice. The product under test is dissolved in distilled water and it is administered n times (Dx-Dy), n, y, and x varying according to the protocol chosen, at the rate of 0.1 ml of solution per 10 g by weight of mice treated and at specific doses for each protocol.
(§4) The "negative control" group, corresponding to the animals which are not treated by the product, contains 2√N animals, N being equal to or greater than the total number of mice treated by the product in the same experiment.
(§5) Finally, the tests can also be carried out at the same time as the study of a group called "positive control", of ten animals, which is treated by a molecule, known for its antitumour activity and which can vary according to the protocol chosen, in the same conditions as the groups treated by the product under test.
(§6) The antitumour activity is evaluated, in the case of ascitic tumours, by considering the increase in the survival time of the animals treated in comparison to that of the animals in the "negative control" group, according to the formula: [formula]
(§7) Also, a product is considered as toxic at the dose studied when this T/C value is equal to or less than 85%. In addition, a product is also considered as toxic at the dose studied when the weight variation, expressed in grams and calculated by the formula: […]
(d) Test for melanoma B 16 (GERAN et al., Cancer Chemother., 1972, 2, 07-75).
The tests are carried out with BDF1 hybrid mice inoculated by intraperitoneal route with 0.5 ml of a homogenate of melanoma B 16 made up from 1 g of tumour in 10 ml of physiological serum. The compound under test is administered for 9 days (D1-D9) by intraperitoneal route. The positive control for the test is Cis-Platine administered in the same conditions. The number of surviving animals is evaluated on day D60.

[2] = system: leukemia tumour line L 1210; assay: In vitro cytotoxic activity on leukemia tumour line L 1210; type: cell-based; conditions: L 1210, 48 hours contact, 37° C., read-out: I D 50 (concentration which inhibits the proliferation of the cells by 50%)
Experimental: (1) In vitro: ([…] et al., Chem. Biol. Interaction, 1979, 25, 45-58). The cytotoxic activity of the compounds of the invention has been evaluated by in vitro tests. These tests consist of adding increasing concentrations of the compound under test to a cellular culture of the leukemia tumour line L 1210 in an exponential phase of growth. The cellules are incubated at 37° C. in a CO2 incubator and counted every 24 hours. The calculation of the I D 50 (concentration of the product, expressed in 1^-1 micromole, which inhibits the proliferation of the cells by 50%) is made after 48 hours contact.

[3] = system: leukemia P 388; assay: Test of leukemia P 388; IP/IP, D1-5; type: in vivo, CDF1 hybrid mice; conditions: D1-D5; for Number of survivors: day D30; for T/C %: survival time
Experimental: (2) In vivo: (GERAN et al., Cancer Chemother., 1972, 2, 07-57):
as §1, §2, §3, §4, §5, §6
The criterion for activity varies according to the protocol.
as §7
"Average weight of the group measured on day 5--Average weight of the same group measured on day 1"
is equal to or less than 4 g.
(a) Test of lelukemia P 388; IP/IP, D1-5 (GERAN et al., Cancer Chemother., 1972, 2, 07-57).
The tests are carried out with CDF1 hybrid mice inoculated by intraperitoneal route with 10^6 leukemia cells from the P 388 line. The compound under test is administered for 5 successive days (D1-D5) by intraperitoneal route. The positive control for the test is 5-fluorouracile which is administered in the same conditions. The number of surviving animals is evaluated on day D30.

[4] = in vivo; set-up: species or system CDF1 hybrid mice; conditions: mouse, ip
Text: The compounds of the invention benefit from a good tolerance and a weak toxicity.
Thus the administration, to healthy CDF1 hybrid mice, in a single injection by intraperitoneal route, of the compounds under test, has enabled it to be established that the product is perfectly tolerated at a high dosage since the survival rate of the animals of the experiment was 100 out of 100 thirteen days after administration.

[5] = system: reticulosarcoma M5-M5076; assay: Test for reticulosarcoma M5-M5076; type: in vivo, BDF1 hybrid mice; conditions: 50 mg/kg IP, D1,5,9,13,17
Experimental: as §1, §2, §3, §4, §5, §6, §7
The tests are carried out with BDF1 hybrid mice inoculated by intraperitoneal route with 10^6 cells of the M5-M5076 line. The compound under test is administered 5 times successively in sequence (D1,5,9,13,17) by intraperitoneal route. The positive control for the test is cyclophosphamide administered in the same conditions. The number of surviving animals is evaluated on day D75.

## Cc1cnc(NCCCN(C)C)c2c1[nH]c1ccc(O)cc12 [Derivative No. 9, 1-(3-dimethylaminopropylamino)-8-hydroxy-4-methyl-5H-pyrido[4,3-b]indole]
[1]; 0.625 mg/kg IP
  Median day of survival: 28 days
  Variation by weight (g): +1.3 g
  Number of survivors: 0/10
  T/C %: 118%
[1]; 1.25 mg/kg IP
  Median day of survival: 33.0 days
  Variation by weight (g): +0.1 g
  Number of survivors: 1/10
  T/C %: 139%
[1]; 2.5 mg/kg IP
  Median day of survival: 31.25 days
  Variation by weight (g): +0.8 g
  Number of survivors: 1/10
  T/C %: 131%
[2]; Mus musculus, L1210, 48 h
  IC50: 90 nM

## CCN(CC)CCCNc1ncc(C)c2[nH]c3ccc(OC)cc3c12 [Derivative No. 4, 1-(3-diethylaminopropylamino)-8-methoxy-4-methyl-5H-pyrido[4,3-b]indole]
[1]; 5 mg/kg IP
  Median day of survival: 29.0 days
  Variation by weight: -1.9 g
  Number of survivors: 0/10
  T/C %: 135%
[3]; 5 mg/kg IP
  Median day of survival: 14.0 days
  Variation by weight (g): +1.1 g
  Number of survivors: 0/10
  T/C %: 121%
[3]; 10 mg/kg IP
  Median day of survival: 17.0 days
  Variation by weight (g): +0.7 g
  Number of survivors: 0/10
  T/C %: 147%
[3]; 20 mg/kg IP
  Median day of survival: 17.25 days
  Variation by weight: -0.9 g
  Number of survivors: 0/10
  T/C %: 149%
[3]; 40 mg/kg IP
  Median day of survival: 20.3 days
  Variation by weight: -3.4 g
  Number of survivors: 0/10
  T/C %: 176%
[3]; 80 mg/kg IP
  Median day of survival: 6.6 days
  Variation by weight: -4.8 g
  Number of survivors: 0/10
  T/C %: 57%
[4]; 50 mg/kg
  survival at 312 h: 100%
[2]; Mus musculus, L1210, 48 h
  IC50: 300 nM

## CCN(CC)CCCNc1ncc(C)c2[nH]c3ccccc3c12 [Derivative No. 1, 1-(3-diethylaminopropylamino) 4-methyl-5H-pyrido-[4,3-b]indole]
[5]
  Median day of survival: 32.7 days
  Variation by weight: -0.6 g
[5]; day D75
  Number of survivors: 0/10
[5]; survival time
  T/C %: 130%
[3]; 10 mg/kg IP
  Median day of survival: 15.7 days
  Variation by weight: -0.9 g
  Number of survivors: 0/10
  T/C %: 130%
[3]; 50 mg/kg IP
  Median day of survival: 21.0 days
  Variation by weight: -2.6 g
  Number of survivors: 0/10
  T/C %: 174%
[4]; 100 mg/kg
  survival at 312 h: 100%

## CCN(CC)CCCNc1ncc(C)c2[nH]c3ccc(O)cc3c12 [Derivative No. 8, 1-(diethylaminopropylamino)-8-hydroxy-4-methyl-5H-pyrido[4,3-b]indole]
[3]; 0.625 mg/kg IP
  Median day of survival: 15.1 days
  Variation by weight: -0.5 g
  Number of survivors: 0/10
  T/C %: 136%
[3]; 1.25 mg/kg IP
  Median day of survival: 15.7 days
  Variation by weight (g): +0.6 g
  Number of survivors: 0/10
  T/C %: 141%
[3]; 2.5 mg/kg IP
  Median day of survival: 16.1 days
  Variation by weight: -1.2 g
  Number of survivors: 0/10
  T/C %: 147%
[3]; 5 mg/kg IP
  Median day of survival: 19.4 days
  Variation by weight: -0.8 g
  Number of survivors: 0/10
  T/C %: 175%
[3]; 10 mg/kg IP
  Median day of survival: 12.0 days
  Variation by weight: -1.1 g
  Number of survivors: 0/10
  T/C %: 108%
[2]
  IC50: 80 nM

## CCN(CC)CCNc1ncc(C)c2c1c1cc(O)ccc1n2C.Cl.Cl [Derivative No. 19, 1-(2-diethylaminoethylamino)-4,5-dimethyl-8-hydroxy-5H-pyrido[4,3-b]indole dihydrochloride]
[3]; 5 mg/kg IP
  Median day of survival: 15.3 days
  Variation by weight (g): +0.5 g
  Number of survivors: 0/6
  T/C %: 142%
[3]; 10 mg/kg IP
  Median day of survival: 17.0 days
  Variation by weight: -0.2 g
  Number of survivors: 0/6
  T/C %: 153%
[3]; 20 mg/kg IP
  Median day of survival: 20.3 days
  Variation by weight (g): +0.3 g
  Number of survivors: 0/6
  T/C %: 182%
[3]; 40 mg/kg IP
  Median day of survival: 15.3 days
  Variation by weight: -2.1 g
  Number of survivors: 0/6
  T/C %: 137%
[2]; Mus musculus, L1210, 48 h
  IC50: 150 nM

Reference: US4835160A, “Derivatives of pyridoindole, having anti-tumor properties” (Sanofi, priority 1986, dated 1989)
